What was measured:
[1] = Cl2 demand in the corrosion cell test (Examples 1 and 2); format: physicochemical
Description: (§1) One liter samples of synthetic water were each dosed with the compositions in Table 1.
(§2) The apparatus used for the corrosion testing was a Gamry Multiport Corrosion Cell and Gamry Reference 600+potentiostat with multiplexor. Copper coupons (CDA110) were added to the sample cells containing neutral water (pH 7.5), and the cells were dosed with 50 ppm of scale inhibitor (co-polymer and 2-phosphonobutane-1,2,4-yricarboxylic acid) and heated to 50° C. and maintained at this temperature throughout the testing. The cells were continuously stirred at a speed of 350 rpm. A cylindrical working electrode was submerged into the test solutions, and an LPR sweep (linear polarization resistance) was performed every hour for 18 hours. After the 0.5 hrs mark, 1 ppm of free chlorine was dosed into the corrosion cell.
(§3) One liter samples of the synthetic water described above with respect to Example 1 were each dosed with the compositions in Table 5 and processed under conditions similar to Example 1.

[2] = Control normalized Cl2 demand over time (Example 3, FIG. 3); format: physicochemical; settings: 1 ppm; compared to 50% sodium glucoheptonate (10 ppm)
Excerpt: One liter samples of the synthetic water described above with respect to Example 1 were each dosed with the compositions in Table 7 and processed under conditions similar to Example 1.

[3] = Corrosion rate by LPR sweep, copper coupons in synthetic water, 50° C., 1 ppm free chlorine after 0.5 hrs (Examples 1 and 2)
Description: as §1, §2, §3

## sodium dicarboxylethyl coco phosphoethyl imidazoline [SDCPI]
[1]; 1 ppm
  Cl2 Demand: 0.3 mg/L
[1]; 2 ppm
  Cl2 Demand: 0.9 mg/L
[1]; 3 ppm
  Cl2 Demand: 0.8 mg/L
[2]
  control normalized C12 demand over time (in words): did not result in significant loss of C12 demand
[3]; 1 ppm
  CR Average (10-18 hrs): 0.224 mpy
  CR Peak: 0.279 mpy
[3]; 1 ppm, 0 hrs
  corrosion rate: 0.025 mpy
[3]; 1 ppm, 1 hrs
  corrosion rate: 0.279 mpy
[3]; 1 ppm, 2 hrs
  corrosion rate: 0.252 mpy
[3]; 1 ppm, 3 hrs
  corrosion rate: 0.257 mpy
[3]; 1 ppm, 4 hrs
  corrosion rate: 0.245 mpy
[3]; 1 ppm, 5 hrs
  corrosion rate: 0.214 mpy
[3]; 1 ppm, 6 hrs
  corrosion rate: 0.200 mpy
[3]; 1 ppm, 7 hrs
  corrosion rate: 0.184 mpy
[3]; 1 ppm, 8 hrs
  corrosion rate: 0.175 mpy
[3]; 1 ppm, 9 hrs
  corrosion rate: 0.174 mpy
[3]; 1 ppm, 10 hrs
  corrosion rate: 0.182 mpy
[3]; 1 ppm, 11 hrs
  corrosion rate: 0.197 mpy
[3]; 1 ppm, 12 hrs
  corrosion rate: 0.213 mpy
[3]; 1 ppm, 13 hrs
  corrosion rate: 0.226 mpy
[3]; 1 ppm, 14 hrs
  corrosion rate: 0.240 mpy
[3]; 1 ppm, 15 hrs
  corrosion rate: 0.247 mpy
[3]; 1 ppm, 16 hrs
  corrosion rate: 0.249 mpy
[3]; 1 ppm, 17 hrs
  corrosion rate: 0.241 mpy
[3]; 1 ppm, 18 hrs
  corrosion rate: 0.226 mpy
[3]; 2 ppm
  CR Average (10-18 hrs): 0.013 mpy
  CR Peak: 0.092 mpy
[3]; 2 ppm, 0 hrs
  corrosion rate: 0.0168 mpy
[3]; 2 ppm, 1 hrs
  corrosion rate: 0.0923 mpy
[3]; 2 ppm, 2 hrs
  corrosion rate: 0.0637 mpy
[3]; 2 ppm, 3 hrs
  corrosion rate: 0.0529 mpy
[3]; 2 ppm, 4 hrs
  corrosion rate: 0.0240 mpy
[3]; 2 ppm, 5 hrs
  corrosion rate: 0.0173 mpy
[3]; 2 ppm, 6 hrs
  corrosion rate: 0.0164 mpy
[3]; 2 ppm, 7 hrs
  corrosion rate: 0.0167 mpy
[3]; 2 ppm, 8 hrs
  corrosion rate: 0.0171 mpy
[3]; 2 ppm, 9 hrs
  corrosion rate: 0.0179 mpy
[3]; 2 ppm, 10 hrs
  corrosion rate: 0.0165 mpy
[3]; 2 ppm, 11 hrs
  corrosion rate: 0.0151 mpy
[3]; 2 ppm, 12 hrs
  corrosion rate: 0.0139 mpy
[3]; 2 ppm, 13 hrs
  corrosion rate: 0.0133 mpy
[3]; 2 ppm, 14 hrs
  corrosion rate: 0.0127 mpy
[3]; 2 ppm, 15 hrs
  corrosion rate: 0.0117 mpy
[3]; 2 ppm, 16 hrs
  corrosion rate: 0.0116 mpy
[3]; 2 ppm, 17 hrs
  corrosion rate: 0.0113 mpy
[3]; 2 ppm, 18 hrs
  corrosion rate: 0.0103 mpy
[3]; 3 ppm
  CR Average (10-18 hrs): 0.042 mpy
  CR Peak: 0.053 mpy
[3]; 3 ppm, 0 hrs
  corrosion rate: 0.013 mpy
[3]; 3 ppm, 1 hrs
  corrosion rate: 0.053 mpy
[3]; 3 ppm, 2 hrs
  corrosion rate: 0.039 mpy
[3]; 3 ppm, 3 hrs
  corrosion rate: 0.043 mpy
[3]; 3 ppm, 4 hrs
  corrosion rate: 0.042 mpy
[3]; 3 ppm, 5 hrs
  corrosion rate: 0.042 mpy
[3]; 3 ppm, 6 hrs
  corrosion rate: 0.044 mpy
[3]; 3 ppm, 7 hrs
  corrosion rate: 0.044 mpy
[3]; 3 ppm, 8 hrs
  corrosion rate: 0.044 mpy
[3]; 3 ppm, 9 hrs
  corrosion rate: 0.046 mpy
[3]; 3 ppm, 10 hrs
  corrosion rate: 0.046 mpy
[3]; 3 ppm, 11 hrs
  corrosion rate: 0.046 mpy
[3]; 3 ppm, 12 hrs
  corrosion rate: 0.044 mpy
[3]; 3 ppm, 13 hrs
  corrosion rate: 0.043 mpy
[3]; 3 ppm, 14 hrs
  corrosion rate: 0.042 mpy
[3]; 3 ppm, 15 hrs
  corrosion rate: 0.041 mpy
[3]; 3 ppm, 16 hrs
  corrosion rate: 0.040 mpy
[3]; 3 ppm, 17 hrs
  corrosion rate: 0.039 mpy
[3]; 3 ppm, 18 hrs
  corrosion rate: 0.038 mpy
[3]; Example 2, 2 ppm
  corrosion inhibition properties over the entire 18 hour period (in words): good corrosion inhibition properties

## CCCCCCCC(=O)NCCN(CCOCC(=O)[O-])CC(=O)[O-].[Na+].[Na+] [DCyADAA, Disodium Capryloamphodiacetate]
[1]; 2 ppm
  Cl2 Demand: 1.1 mg/L
[3]; 2 ppm
  CR Average (10-18 hrs): 0.271 mpy
  CR Peak: 2.854 mpy
[3]; 2 ppm, 0 hrs
  corrosion rate: 0.0230 mpy
[3]; 2 ppm, 1 hrs
  corrosion rate: 2.8540 mpy
[3]; 2 ppm, 2 hrs
  corrosion rate: 1.5850 mpy
[3]; 2 ppm, 3 hrs
  corrosion rate: 1.3860 mpy
[3]; 2 ppm, 4 hrs
  corrosion rate: 0.5261 mpy
[3]; 2 ppm, 5 hrs
  corrosion rate: 0.6207 mpy
[3]; 2 ppm, 6 hrs
  corrosion rate: 0.5852 mpy
[3]; 2 ppm, 7 hrs
  corrosion rate: 0.4766 mpy
[3]; 2 ppm, 8 hrs
  corrosion rate: 0.4185 mpy
[3]; 2 ppm, 9 hrs
  corrosion rate: 0.3747 mpy
[3]; 2 ppm, 10 hrs
  corrosion rate: 0.3416 mpy
[3]; 2 ppm, 11 hrs
  corrosion rate: 0.3181 mpy
[3]; 2 ppm, 12 hrs
  corrosion rate: 0.2953 mpy
[3]; 2 ppm, 13 hrs
  corrosion rate: 0.2800 mpy
[3]; 2 ppm, 14 hrs
  corrosion rate: 0.2681 mpy
[3]; 2 ppm, 15 hrs
  corrosion rate: 0.2352 mpy
[3]; 2 ppm, 16 hrs
  corrosion rate: 0.2411 mpy
[3]; 2 ppm, 17 hrs
  corrosion rate: 0.2394 mpy
[3]; 2 ppm, 18 hrs
  corrosion rate: 0.2217 mpy
[3]; Example 2, 2 ppm
  corrosion inhibition properties over the entire 18 hour period (in words): inferior corrosion inhibition properties
  corrosion resistance when free chlorine was added (in words): substantial deterioration in corrosion resistance

— patent US20250270707A1, “NON-TRIAZOLE IMIDAZOLINE AND AMIDE COMPOUNDS AND METHODS FOR INHIBITING CORROSION IN INDUSTRIAL WATER TREATMENT” (CHEMTREAT, INC., priority 2023, published 2025)
